Measured values as given in patent publication US11766434B2, “Pyrimidinone derivatives as CDC7 inhibitors” (Cancer Research Technology Limited, priority 2016, dated 2023).

Target: Cdc7 (Homo sapiens, UniProt O00311)
Assay: Cdc7 cell pharmacodynamics assay Method 2: pS40MCM2 levels in HCT116 cells
Type: cell-based
Set-up: endogenous in cells
Conditions: 18 hours treatment, read-out: Biomarker Method 2 (pEC50) (converted)
From the text: This protocol describes a method to investigate the inhibition of Cdc7 activity by measuring pS40MCM2 levels in cells, after treatment with compounds.
• HCT116 cells (ATCC, #CCL-247) • McCoys 5A with L-glutamine (Cellgro, #10-050-CV) • 10% FCS (Cellgro, #35-010-CV) • D-PBS without CaCl2 and MgCl2 (Cellgro, #21-031-CV) • Trypsin/EDTA (Cellgro, #25-052-CL) • BSA (Calbiochem, 126593) • Cell Extraction Buffer (Invitrogen FNN0011) • Protease inhibitor cocktail (Sigma P-2714) • PMSF 0.3M stock in DMSO (Sigma P7626) • Antibody—rabbit pMCM2 Ser40 (Abeam, AB133243) • Antibody—goat MCM2 (Bethyl #A300-122A) • Antibody—goat Anti Rabbit IgG HRP (Thermo, 31462) • SuperSignal ELISA Pico Chemiluminescent Substrate (Perbio Science UK Ltd 37069) • 10×PBS (Growcells, MRGF-6236) • Triton X100 (Sigma, P-T8787) • DMSO (Fisher, D128-1) • 2-Propanol (J. T. Baker, 9095-03) Method • Seed 1×10^6 HCT116 cells into each of two 175 cm^2 flask containing 30 mL Cell Growth Media and incubate at 37° C., 5% CO2 for 3 days. • Harvest the cells from one T175 cm^2 flask and count. • Dilute with Cell Growth Media to a cell density of 2×10^5. Dispense 100 μL to each well (20,000 HCT116 cells/well) of TC treated 96-well plate(s). • Allow cells to settle overnight in incubator set at 37° C. and 5% CO2. • Cell treatment: Transfer 0.25 μL/well from the compound plate to the wells of the cell plate(s). This is a 1:400 dilution of compound in the assay. • Once all cells are treated place the cells back to the incubator and incubate for 18 hours. • Dilute the capture antibody (total MCM2 #A300-122A) 1 in 250 in the required volume of PBS (5 mL per assay plate, plus 5 mL for dead volume) and add 50 μL to each well of a Hybond plate except wells A12 & B12. Seal the plate and incubate at room temperature fora minimum of 2 hours. • Defrost aliquot of Invitrogen Cell Extraction Buffer (FNN0011) on ice and supplement with appropriate volume of both Sigma protease inhibitor cocktail (P-2714) and PMSF (final cone 1 mM from a 1 M stock in DMSO). • After the 6 hour or 18 hour cell treatment time, tap out the media from the assay plates and place them in the −70° C. freezer for at least 5 minutes. • Flick out the remaining liquid in the previously prepared capture Ab plate(s) and add 200 μL 2% BSA per well. Incubate for 1 hour at room temperature. • Remove plates from freezer and add 20 μL of ice cold complete lysis buffer. Incubate cells for 30 minutes at 4° C. • Add 30 μL per well 2% BSA • At the end of the 1 hour incubation, wash the Capture/ELISA plate(s) with Wash Buffer on the BioTek plate washer. • Transfer 40 μL per well of the lysis plate(s) to the same wells in the Capture/ELISA plate. Incubate cells overnight at 4° C. • At the end of the overnight incubation, wash the ELISA plate(s) with Wash Buffer on BioTek plate washer. • Prepare Detection Antibody Buffer and dispense 50 μL to all wells of ELISA plate(s) except wells G1 & H1. Cover plate and incubate at room temperature for 2 hours with gentle shaking. • At the end of the 2 hour incubation, wash the ELISA plate(s) with Wash Buffer on the BioTek plate washer. • Prepare the Conjugated Antibody Buffer and dispense 50 μL to all wells of ELISA plate(s). • Cover the plate and incubate at room temperature for 1 hour with gentle shaking. • At the end of the 1 hour incubation, wash the ELISA plate(s) with Wash Buffer on the BioTek plate washer. • Prepare Substrate Buffer and dispense 50 μL to all wells of ELISA plate(s). • Incubate for a minimum of 10 minutes and read plates on the EnVision 2100 Multilabel Reader (Mirror: Luminescence (404) & Luminescence 700 (212); Measurement Height: 6.5 mm; Measurement Time: 0.2 s). Method 3

Chain of Cdc7 (O00311 whole entry): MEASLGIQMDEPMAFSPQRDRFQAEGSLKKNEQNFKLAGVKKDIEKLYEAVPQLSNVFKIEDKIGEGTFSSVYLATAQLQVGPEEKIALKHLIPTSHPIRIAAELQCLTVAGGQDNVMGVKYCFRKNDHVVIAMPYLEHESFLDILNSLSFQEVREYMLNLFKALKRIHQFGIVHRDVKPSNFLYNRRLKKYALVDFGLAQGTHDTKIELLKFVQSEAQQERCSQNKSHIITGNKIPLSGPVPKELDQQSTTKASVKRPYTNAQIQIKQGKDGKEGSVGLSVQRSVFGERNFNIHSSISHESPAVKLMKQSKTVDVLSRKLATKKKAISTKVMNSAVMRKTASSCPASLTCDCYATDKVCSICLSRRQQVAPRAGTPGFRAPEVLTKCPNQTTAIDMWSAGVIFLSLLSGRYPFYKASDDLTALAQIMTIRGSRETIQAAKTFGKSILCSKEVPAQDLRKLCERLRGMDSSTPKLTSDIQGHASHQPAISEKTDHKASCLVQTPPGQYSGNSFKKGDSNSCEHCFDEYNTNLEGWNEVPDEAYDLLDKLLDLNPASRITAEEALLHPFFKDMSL
Chain of Cdc7 (Q9UBU7 whole entry partner): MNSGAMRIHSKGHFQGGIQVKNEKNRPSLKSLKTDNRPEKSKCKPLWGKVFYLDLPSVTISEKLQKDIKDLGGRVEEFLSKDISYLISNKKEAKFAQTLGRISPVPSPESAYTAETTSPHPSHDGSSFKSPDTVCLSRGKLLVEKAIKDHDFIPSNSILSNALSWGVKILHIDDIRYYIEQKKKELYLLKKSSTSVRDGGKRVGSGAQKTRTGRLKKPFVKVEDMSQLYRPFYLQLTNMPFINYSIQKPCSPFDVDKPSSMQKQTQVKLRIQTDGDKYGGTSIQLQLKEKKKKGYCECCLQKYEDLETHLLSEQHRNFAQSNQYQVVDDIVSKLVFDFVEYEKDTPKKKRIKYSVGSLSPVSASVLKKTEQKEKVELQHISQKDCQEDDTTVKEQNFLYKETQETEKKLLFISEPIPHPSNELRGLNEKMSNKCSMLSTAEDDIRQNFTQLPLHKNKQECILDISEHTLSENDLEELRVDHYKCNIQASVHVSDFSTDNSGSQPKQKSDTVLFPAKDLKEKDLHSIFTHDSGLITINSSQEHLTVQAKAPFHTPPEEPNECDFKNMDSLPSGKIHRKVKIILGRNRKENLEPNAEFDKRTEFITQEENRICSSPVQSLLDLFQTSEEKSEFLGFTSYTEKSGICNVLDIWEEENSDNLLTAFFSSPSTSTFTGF

Row | EC50 | Compound
1 | 372 nM | O=c1[nH]c(-c2cn[nH]c2C(F)(F)F)nc(C2CCOCC2)c1Cl [Compound 17, 5-chloro-4-tetrahydropyran-4-yl-2-[5-(trifluoromethyl)-1H-pyrazol-4-yl]-1H-pyrimidin-6-one]
2 | 7.24 nM | C[C@@H]1COCCN1c1nc(-c2cn[nH]c2C(F)(F)F)[nH]c(=O)c1Cl [Compound 41, 5-chloro-4-[(3R)-3-methylmorpholin-4-yl]-2-[5-(trifluoromethyl)-1H-pyrazol-4-yl]-1H-pyrimidin-6-one]
3 | 38 nM | C[C@@H]1CNCCN1c1nc(-c2cn[nH]c2Cl)[nH]c(=O)c1Cl [Compound 43, 5-chloro-2-(5-chloro-1H-pyrazol-4-yl)-4-[(2R)-2-methylpiperazin-1-yl]-1H-pyrimidin-6-one]
4 | 25.1 nM | C[C@@H]1CNCCN1c1nc(-c2cn[nH]c2C(F)(F)F)[nH]c(=O)c1Cl [Compound 44, 5-chloro-4-[(2R)-2-methylpiperazin-1-yl]-2-[5-(trifluoromethyl)-1H-pyrazol-4-yl]-1H-pyrimidin-6-one]
